pIC50: −log10 of the molar value.
Tested on: not listed separately
Test: Apparent permeability in pig LLC-PK1 cells by LC-MS/MS analysis
Format: ADME, cell-based, Sus scrofa

Papp [×10⁻⁶ cm/s]	Compound
23	C[C@@]1(c2cc(NC(=O)c3ccc(C#N)cn3)ccc2F)C=CSC(N)=N1 [ATABECESTAT]
33	C[C@@]1(c2cc(-c3cncnc3)c(F)cc2F)CCSC(N)=N1 [LY-2811376]

Target: Beta-secretase 1 (Homo sapiens, UniProt P56817)
Test: Inhibition of BACE1 (unknown origin) by HTRF assay

Chain of Beta-secretase 1 (P56817 whole entry): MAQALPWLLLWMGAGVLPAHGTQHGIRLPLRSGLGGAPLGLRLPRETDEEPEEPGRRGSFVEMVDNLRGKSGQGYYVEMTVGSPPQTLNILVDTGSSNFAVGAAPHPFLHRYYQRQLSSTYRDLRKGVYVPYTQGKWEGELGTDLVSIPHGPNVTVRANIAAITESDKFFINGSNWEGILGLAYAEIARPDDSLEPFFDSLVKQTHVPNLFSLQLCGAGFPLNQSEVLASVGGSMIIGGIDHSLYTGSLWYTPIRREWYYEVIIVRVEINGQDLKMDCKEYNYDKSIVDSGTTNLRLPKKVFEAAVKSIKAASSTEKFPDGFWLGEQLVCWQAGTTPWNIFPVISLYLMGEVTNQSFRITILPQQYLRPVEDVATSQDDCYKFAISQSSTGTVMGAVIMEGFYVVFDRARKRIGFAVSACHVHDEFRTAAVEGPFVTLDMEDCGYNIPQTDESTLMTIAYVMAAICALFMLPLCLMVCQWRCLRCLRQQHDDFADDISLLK

pIC50	Compound
6.81	C[C@@]1(c2cc(NC(=O)c3ncc(C#N)cc3F)ccc2F)C=C(CF)OC(N)=N1
6.62	COc1cnc(C(=O)Nc2ccc(F)c([C@]3(C)C=C(CF)OC(N)=N3)c2)nc1
6.31	COc1cnc(C(=O)Nc2ccc(F)c([C@]3(C)C=C(CF)OC(N)=N3)c2)c(C)n1
7.08	C[C@@]1(c2cc(NC(=O)c3ccn(C(F)F)n3)ccc2F)C=C(CF)OC(N)=N1
